Data from US20120052099A1, “PHARMACEUTICAL COMPOSITION CONTAINING ARBIDOL IN THE FORM OF PHOSPHOLIPID NANOPARTICLES” (priority 2009, published 2012).
“Also recorded” adds a separate entry of the source. Counter-ions that a name gives are not always drawn.

How the values were obtained:
[1] = test system: whole blood; assay: Hemolysis on addition to whole blood in vitro; assay type: cell-based; details: 50 μl of 5 mg/ml Arbidol added to 950 μl whole blood, 37° C., 20 minutes
[2] = Bioaccessibility (pharmacokinetics) after peroral administration in rats; assay type: in vivo; design: area (chromatogram peak), blood: unit not given here; details: 25 mg/kg
Procedure: 1. The content of an NF Arbidol flask was dissolved in 5 ml. (A) 2. An Arbidol solution was prepared at a concentration of 5 mg/ml (suspension in water). (B) 3. Feed was withdrawn from the animals, leaving them water only, 24 hours before the experiment, and the animals were weighed on the day of the experiment. 4. 1 ml of solution A and B was administered perorally to the rats. 5. Blood was collected at intervals of 5, 10, 15, 30, and 45 minutes into eppendorfs containing EDTA. After an eppendorf was filled, it was shaken intensively. 6. Blood treatment: 900 μl of methanol was added to 100 μl of blood and agitated intensively for 3 to 5 minutes. The mixture was centrifuged to cause sedimentation of proteins. It was then analyzed by high-performance liquid chromatography for presence of Arbidol in the samples.
The dose administered was 25 mg/kg.

[3] = cited from earlier work
[4] = used internally; cited from earlier work
[5] = 10 minutes after administration
[6] = 15 minutes after administration
[7] = 30 minutes after administration

For `CCOC(=O)c1c(CSc2ccccc2)n(C)c2cc(Br)c(O)c(CN(C)C)c12` [Arbidol, ethyl ester of 6-bromo-5-hydroxy-1-methyl-4-dimethylaminomethyl-2-phenylthiomethylindole-3-carbonic acid hydrochloride monohydrate], the “Hemolysis if added to whole blood” value [1] was “causes hemolysis”, the “area (chromatogram peak), blood” value ([2]; 5 minutes after administration) was 0/0 and the concentration in blood ([2]; 5 minutes after administration) was 0/0 μg/ml. For the same compound, the “area (chromatogram peak), blood” value [2, 5] was 1.2, the concentration in blood [2, 5] was 0.3 µg/mL and the “area (chromatogram peak), blood” value [2, 6] was 7.69. The concentration in blood [2, 6] was 2.4 µg/mL, the “area (chromatogram peak), blood” value [2, 7] was 1.6 and the concentration in blood [2, 7] was 0.4 µg/mL. For the same compound, the solubility in ethanol ([3]; ethanol) was “dissolved only slightly in ethanol”, the solubility in water ([3]; water, hydrochloride monohydrate) was “practically insoluble in water; also recorded: not soluble in water; also recorded: not dissolved in water” and the T1/2 [4] was “approximately 17 hours”.
